Test results reported in US9488641B2, “Multicellular system and method for multiparametric analysis” (Case Western Reserve University, priority 2012, dated 2016).
“Also recorded” adds a separate entry of the source.

Experiments:
[1] = test system: BAC1.2F5 macrophage cells; assay: Oxygen uptake by BAC1.2F5 macrophage cells measured with Pt microring electrode (pulse amperometry); type: cell-based, mouse
Procedure: A CHI 1030 8-channel potentiostat (CH Instruments Inc., Austin, TZ) was used to perform all electrochemical experiments: Cyclic Voltammetry (CV) and Pulse Amperometry (PA). The experimental setup was placed inside a custom built Faraday cage which was equipped with an XYZ stage for manipulation of the devices and a custom built thermostat to maintain the temperature inside the Faraday cage at 25° C. A Scion camera was mounted on top of the Faraday cage to visual observation of the sensing unit of interest. The microfabricated Pt microring electrode was used as the working electrode of the electrochemical cell. An Ag/AgCl reference and a Pt counter electrode were used to complete the cell.
Live mouse macrophage cells (BAC1.2F5) were used for cell experiments. Culture and disposal procedures of these cells are described by E1-Moatassim and Dubyak (el-Moatassim and Dubyak 1992) in detail.
A 100 μL drop of cell medium with suspended cells (105 BAC 1.2F5 mouse macrophages/mL) was gently added to the buffer with a disposable plastic pipette on top of the chip ˜5 mm from the targeted sensing unit. A simple hydrodynamic manipulation technique previously developed in our laboratory (Yoshida, Tohda et al. 2003) was then used to precisely position the selected cell(s) inside the targeted microring electrode.
˜500 μL of the required solution was added to the buffer using a disposable plastic pipette. The buffer was then homogenized by gentle circular movements induced by the same pipette for ˜10 seconds.
Continuous measurement will lead to sustained depletion of oxygen near the electrode. When cells are positioned near the electrodes this depletion of oxygen may perturb oxygen dependent cellular processes by decreasing the local availability of oxygen. To mitigate this undesirable effect, a pulse amperometry (PA) protocol was implemented. In this protocol the electrode potential is maintained at +0.5 V where no oxygen reduction occurs, before stepping to −0.55 V at which oxygen is reduced. The length of both pulses was chosen to be 250 ms. This restricts the time of depletion of oxygen to the cathodic pulses by allowing for replenishment of oxygen during the anodic pulses. This protocol ensures a sampling rate of 2 Hz that can assess metabolic processes occurring on the seconds time scale. Current proportional to local oxygen concentration is recorded and averaged at the end of each cathodic pulse for 50 ms. This recording period is long enough to obtain a representative value while also minimizing interference by 60 Hz noise.
To confirm that the observed variations in oxygen concentration indicated by the MEMS device reflect physiological processes of the cell(s), we performed another experiment where the metabolic rate of the cell(s) was pharmacologically modulated. […]

MCF7-R cells = assay: Oxygen concentration under MCF7-R model agar half spheroid measured with Au microdisc electrode array; pharmacological modulation of cellular oxygen consumption; type: cell-based; conditions: for Change of measured oxygen concentration after addition: 100 μm [sic] NaN3, 200 μm [sic] DNP; for Measured O2 concentration (%) after NaN3: 100 μM NaN3, representative experiment
Procedure: Confluent plates of MCF7-R cells ere trypsinized and collected in a sterile 1 mL vial. The cell density and the total number of cells in the vial were estimated by cell counting using a hematocytometer. The cells were spun down in a centrifuge and the supernant medium removed. […] The vial with the cell-agar mixture was constantly kept in water bath at 37° C. to prevent the agar from gelling. Tiny hemispherical droplets (800-1000 μm diameter) of this mixture were deposited onto a Teflon® sheet using 0.5-2.5 μL pipette (Eppendorf, Hauppauge, N.Y.) to obtain hemispherical multicellular model agar spheroids. The Teflon® sheet with the model agar half spheroids was incubated in culture medium used for MCF7-R cell culture at 37° C. in 5% CO2. Henceforth, model agar half spheroids will be referred to simply as half spheroids.
The Au microdisc electrodes were polished using a fine emery paper to expose fresh electrode surface before each experiment. The polished electrodes were rinsed with DI water and allowed to dry in air (˜1 hour) after which a thin (˜10 μm) layer (spacer) of cellulose acetate was deposited. The electrodes were pre-conditioned electrochemically prior to starting the half spheroid experiment by continuous cyclic voltammograms (CV) until a stable measurement was reached (at least 50 CVs). The electrodes were calibrated for oxygen reduction current in PBS at different oxygen concentrations prior to the half spheroid experiment (henceforth, referred to as pre-calibration). A half spheroid was positioned on top of the electrode array and the oxygen concentrations inside the spheroid interrogated by linear scan voltammetry (LSV). Oxygen reduction currents under the half spheroid were recorded for half an hour after which the viability of cells inside the half spheroid was checked by pharmacological modulation of cellular oxygen consumption by administering metabolic poisons—NaN3 and DNP. At the end of the experiment the spheroid was removed and current corresponding to ambient oxygen concentration was recorded. The spheroid experiment was followed by a post experiment calibration (henceforth, referred to as post-calibration) of the electrodes to check for electrode drift. The LSV data recorded during these experiments was post processed to extract oxygen concentration values under the spheroid.
The Teflon® sheet on which half spheroids are was is removed from the incubating medium. A half spheroid was carefully transferred onto the electrode array using a curved edge of a pair of tweezers such that the radial electrode array was aligned along a spheroid radius (FIG. 8E). The positioning was done under a 2× stereo microscope to ensure that the spheroid is resting on its flat (bottom) edge. After the agar spheroid was positioned at the desired location a drop of low gelling agarose made in PBS maintained in liquid form at 37° C. was dispensed onto the spheroid from the top to secure its position and prevent it from moving with convective flow. PBS was added to the measurement device reservoir immediately after the spheroid position was secured. The time taken to position the spheroid from the time the half spheroid Petri-dish was removed from the incubator to the time when oxygen measurement is started is less than 3 minutes. During this time the cells in the spheroid (except the outer most shell) were not directly exposed to air.
Desired volumes of the NaN3, DNP and glucose solutions were gently added to the test solution using a disposable transfer pipettes. The solution was then homogenized by gentle circular movements induced by the same pipette for ˜10 s.

Structure (SMILES): C[C@@H]1O[C@@H](O[C@H]2C[C@@H](O)[C@]3(CO)[C@H]4[C@H](O)C[C@]5(C)[C@@H](C6=CC(=O)OC6)CC[C@]5(O)[C@@H]4CC[C@]3(O)C2)[C@H](O)[C@H](O)[C@H]1O [ouabain]
- Current higher than that recorded before administration of ouabain ([1]; cluster of 6 cells inside microring): ~1.7 nA
- Stabilized electrode current after addition of ouabain ([1]; cluster of 6 cells inside microring, ~7.1 nA before ouabain): ~8.8 nA
- Oxygen concentration corresponding to stabilized current after ouabain ([1]; cluster of 6 cells inside microring, ~9% before ouabain): ~15%
- Stationary local oxygen concentration immediately after administration of ouabain ([1]; representative of 3 experiments): increase

Structure (SMILES): O=[N+]([O-])c1ccc(O)c([N+](=O)[O-])c1 [DNP, 2,4 dinitrophenol]
- Change of measured oxygen concentration after addition (MCF7-R cells; 15% cell volume fraction spheroid (FIG. 30)): decreases
- Change of measured oxygen concentration after addition (MCF7-R cells; 15% cell volume fraction spheroid with 5% ambient pO2 (FIG. 34)): decreases
- Change of measured oxygen concentration after addition (MCF7-R cells; 15% cell volume fraction spheroid with 10% ambient pO2 (FIG. 33)): decreases
- Change of measured oxygen concentrations after addition (MCF7-R cells; 30% cell volume fraction half spheroid, ~20% ambient O2, 100 μM sodium azide, then 200 μM DNP (final concentrations)): decreased rapidly; also recorded: decreases
- Change of measured oxygen concentration after addition (MCF7-R cells; 30% cell volume fraction spheroid as printed (FIG. 31), non-zero oxygen core): decreases
- Oxygen consumption by the cells (MCF7-R cells; MCF7-R cells in half spheroid, 100 μM NaN3, subsequent 200 μM DNP (final concentrations)): rapid increase

Structure (SMILES): [N-]=[N+]=[N-] [NaN3, sodium azide]
- Measured O2 concentration (%) after NaN3 (MCF7-R cells; electrode E1, 610 μm from the center of the spheroid (outside spheroid), 30% cell volume fraction half spheroid): 15.9%
- Measured O2 concentration (%) after NaN3 (MCF7-R cells; electrode E2, 470 μm from the center of the spheroid, 30% cell volume fraction half spheroid): 14.3%
- Measured O2 concentration (%) after NaN3 (MCF7-R cells; electrode E3, 370 μm from the center of the spheroid, 30% cell volume fraction half spheroid): 10.8%
- Measured O2 concentration (%) after NaN3 (MCF7-R cells; electrode E4, 270 μm from the center of the spheroid, 30% cell volume fraction half spheroid): 9.9%
- Measured O2 concentration (%) after NaN3 (MCF7-R cells; electrode E5, 180 μm from the center of the spheroid, 30% cell volume fraction half spheroid): 9.6%

Structure (SMILES): O=C[C@H](O)[C@@H](O)[C@H](O)[C@H](O)CO [D-Glucose]
- Change of measured oxygen concentration after addition of glucose to the PBS (MCF7-R cells; 25 mM D-Glucose added to PBS after the glucose-deprivation increase (FIG. 35)): decrease
